Measured values published in ChEMBL document CHEMBL2331416, “Investigation of antibacterial mode of action for traditional and amphiphilic aminoglycosides” (Bioorg Med Chem Lett, 2013).
In brackets after ≈: the same amount, converted by molar mass. Activity calls are given as the source filed them. No cut-off for these calls is given here.

Legend:
[1] = Binding affinity to 2-AP labeled 16s rRNA (unknown origin) having pairing of C1405-G1496 by fluorescence assay
[2] = Binding affinity to 2-AP labeled 16s rRNA (unknown origin) having pairing of G1405-C1496 by fluorescence assay
Staphylococcus aureus [3] = experiment: Antibacterial activity against Staphylococcus aureus ATCC 25923 assessed as growth inhibition; type: functional
Escherichia coli [4] = experiment: Antibacterial activity against Escherichia coli ATCC 25922 assessed as growth inhibition; type: functional
Staphylococcus aureus [5] = experiment: Antibacterial activity against Staphylococcus aureus ATCC 25923 assessed as membrane disruption at 4 X MIC after 2 hrs by SYTOX staining-based fluorescence microscopic analysis; type: functional, organism-based
Escherichia coli [6] = experiment: Antibacterial activity against Escherichia coli ATCC 25922 assessed as membrane disruption at 4 X MIC after 2 hrs by SYTOX staining-based fluorescence microscopic analysis; type: functional, organism-based

Compound	Kd [1]	Kd ([2]; read-out: Kd)	MIC (Staphylococcus aureus [3])	MIC (Escherichia coli [4])	Kd [2]	Activity (Staphylococcus aureus [5])	Activity (Escherichia coli [6])
NC[C@H]1O[C@H](O[C@H]2[C@H](O[C@@H]3O[C@H](CO)[C@@H](O)[C@H](O)[C@H]3O)[C@@H](O)[C@H](N)C[C@@H]2N)[C@H](N)[C@@H](O)[C@@H]1O	608 nM	9670 nM	44.4 µM (≈ 21.5 µg/mL)	92.4 µM (≈ 44.8 µg/mL)	–	–	–
NC[C@H]1O[C@H](O[C@H]2[C@H](O[C@@H]3O[C@H](CO)[C@@H](N)[C@H](O)[C@H]3O)[C@@H](O)[C@H](N)C[C@@H]2N)[C@H](N)[C@@H](O)[C@@H]1O	2830 nM	5680 nM	29.6 µM (≈ 14.3 µg/mL)	44 µM (≈ 21.3 µg/mL)	–	–	–
NC[C@H]1O[C@H](O[C@H]2[C@H](O[C@@H]3O[C@H](CO)[C@@H](O)[C@H](N)[C@H]3O)[C@@H](O)[C@H](N)C[C@@H]2N)[C@H](N)[C@@H](O)[C@@H]1O	1150 nM	–	59.2 µM (≈ 28.6 µg/mL)	57.2 µM (≈ 27.7 µg/mL)	Not Active	–	–
NCC[C@H](O)C(=O)N[C@@H]1C[C@H](N)[C@@H](O[C@H]2O[C@H](CN)[C@@H](O)[C@H](O)[C@H]2N)[C@H](O[C@@H]2O[C@H](CO)[C@@H](O[C@@H]3O[C@H](CN)[C@H](O)[C@@H](O)[C@@H]3N)[C@H]2O)[C@H]1O [NEOKACIN]	1640 nM	–	2.15 µM (≈ 1.54 µg/mL)	8.59 µM (≈ 6.15 µg/mL)	Not Active	–	–
NC[C@H]1O[C@@H](O[C@@H]2[C@@H](O)[C@H](N)C[C@H](N)[C@H]2O[C@H]2O[C@H](CN)[C@@H](O)[C@H](O)[C@H]2N)[C@H](O)[C@@H](O)[C@@H]1O	845 nM	26000 nM	14.8 µM (≈ 7.16 µg/mL)	35.1 µM (≈ 17 µg/mL)	–	–	–
NC[C@@H]1O[C@H](O[C@H]2[C@@H](O)[C@H](O[C@@H]3[C@@H](O)[C@H](N)C[C@H](N)[C@H]3O[C@H]3O[C@H](CN)[C@@H](O)[C@H](O)[C@H]3N)O[C@@H]2CO)[C@H](N)[C@@H](O)[C@@H]1O [FRAMYCETIN]	1270 nM	1150 nM	1.1 µM (≈ 0.676 µg/mL)	4.4 µM (≈ 2.7 µg/mL)	–	inactive	–
C[C@H]1O[C@@H](O[C@@H]2[C@@H](O)[C@H](NC(=O)[C@@H](O)CCN)C[C@H](N)[C@H]2O[C@H]2O[C@H](CN)CC[C@H]2N)[C@H](O)[C@@H](O)[C@@H]1N [PYRANKACIN]	1360 nM	650 nM	2.8 µM (≈ 1.5 µg/mL)	5.59 µM (≈ 3 µg/mL)	–	–	–
NC[C@H]1O[C@@H](O[C@@H]2[C@@H](O)[C@H](N)C[C@H](N)[C@H]2O[C@H]2O[C@H](CN)[C@@H](O)[C@H](O)[C@H]2N)[C@H](O)[C@@H](O)[C@@H]1N	261 nM	3720 nM	29.6 µM (≈ 14.3 µg/mL)	41.8 µM (≈ 20.2 µg/mL)	–	–	–
CCCCCCCCCCCCCCCC(=O)NC[C@H]1O[C@@H](O[C@@H]2[C@@H](O)[C@H](N)C[C@H](N)[C@H]2O[C@H]2O[C@H](CN)[C@@H](O)[C@H](O)[C@H]2N)[C@H](O)[C@@H]1O[C@@H]1O[C@H](CN)[C@H](O)[C@@H](O)[C@@H]1N	737 nM	1270 nM	2.35 µM (≈ 2 µg/mL)	4.69 µM (≈ 4 µg/mL)	–	Active	Active
C[C@H]1O[C@@H](O[C@@H]2[C@@H](O)[C@H](N)C[C@H](N)[C@H]2O[C@H]2O[C@H](CN)[C@@H](O)[C@H](O)[C@H]2N)[C@H](O)[C@@H](O)[C@@H]1N	556 nM	–	11 µM (≈ 5.14 µg/mL)	19.8 µM (≈ 9.26 µg/mL)	Not Active	–	–
C[C@H]1O[C@@H](O[C@@H]2[C@@H](O)[C@H](N)C[C@H](N)[C@H]2O[C@H]2O[C@H](CN)CC[C@H]2N)[C@H](O)[C@@H](O)[C@@H]1O	1200 nM	1330 nM	6.5 µM (≈ 2.84 µg/mL)	26 µM (≈ 11.3 µg/mL)	–	–	–
